Assay results as given in PMC9320628, “Analysis of Structural Determinants of Peptide MS 9a-1 Essential for Potentiating of TRPA1 Channel” (Marine Drugs, 2022).
Read-outs that look alike come from different tables or passages of the source. Where a SMILES comes first, the peptide text is derived from it. Bridges are numbered along the chain shown (N, C = ends).

What was measured:
TRPA1-expressing oocytes = settings: cited from earlier work
Procedure: Oocytes expressing rat TRPA1 (Q6RI86) channel were prepared as described previously. Experiments were approved by the Institutional Animal Care and Use Committee (IACUC) of the Shemyakin–Ovchinnikov Institute of Bioorganic Chemistry Russian Academy of Sciences (Protocol Number 267/2018; date of approval: 28 February 2019). Female frogs were anaesthetized with 0.17% solution of tricaine methane sulfonate (MS222) and oocytes were surgically removed. cRNA was synthesized using a HiScribe™ T7 High Yield RNA Synthesis Kit (New England Biolabs, Ipswich, MA, USA) according to the manufacturers’ ...

[1] = cited from earlier work
Description: We compared the efficacy of peptides Ms 9a-1, C-Ms, N-Ms, Ms 9a-2, and Ms 9a-3 in models of AITC- ...

[2] = target: T1, rat TRPA1 (Q6RI86) channel (Rattus norvegicus, UniProt Q6RI86); assay: Potentiation of diclofenac-induced TRPA1 currents, two-electrode recordings in Xenopus laevis oocytes; format: cell-based; settings: for Diclofenac-induced inward current potentiated up to (maximal, % of control) / EC50 / Diclofenac-induced outward current potentiated up to (maximal, % of control): oocytes expressing rat TRPA1, diclofenac 300 μM; for EC50: Ca2+-free solution, 22–24 °C, mean ± SD of 4–7 measurements, SD; for Maximal potentiating effect lower than that of Ms 9a-1: compared to Ms 9a-1, inward and outward currents
T1 construct: expressed in transfected cells; host or cells: Xenopus laevis oocytes injected with cRNA
Procedure: Peptide activity was measured in Xenopus laevis oocytes, heterologously expressing the TRPA1 channel (Figure 2 and Figure S2). Recordings occurred in repeated 4 s pulses of voltage ramp from −100 mV to 100 mV over 200 ms, whereby inward current was measured at −100 mV and outward at 100 mV.
Oocytes expressing rat TRPA1 (Q6RI86) channel were prepared as described previously. Experiments were approved by the Institutional Animal Care and Use Committee (IACUC) of the Shemyakin–Ovchinnikov Institute of Bioorganic Chemistry Russian Academy of Sciences (Protocol Number 267/2018; date of approval: 28 February 2019). Female frogs were anaesthetized with 0.17% solution of tricaine methane sulfonate (MS222) and oocytes were surgically removed. cRNA was synthesized using a HiScribe™ T7 High Yield RNA Synthesis Kit (New England Biolabs, Ipswich, MA, USA) according to the manufacturers’ protocol for capped transcripts and then injected in X. laevis oocytes. The oocytes were kept for 2–7 days at 16–17 °C in sterile ND-96 medium (96 mM NaCl, 2 mM KCl, 1.8 mM CaCl2, 1 mM MgCl2, 5 mM HEPES, pH 7.4) supplemented with 50 μg/mL gentamycin. Electrophysiological recordings were carried out at room temperature (22–24 °C) in Ca^2+-free solution (96 mM NaCl, 2 mM KCl, 1 mM MgCl2, 5 mM HEPES, pH 7.4) using the GeneClamp500 amplifier (Axon Instruments, Union City, CA, USA) at a holding potential of −50 mV. The data were filtered at 20 Hz and digitized at 100 Hz by an AD converter L780 (LCard, Moscow, Russia) using in-house software. Oocytes were impaled with two glass microelectrodes filled with 3 M KCl. Inward/outward currents were recorded at repeated every 4 seconds a stimuli comprising step from holding potential to −100 mV for 80 ms followed by voltage ramp from −100 mV to +100 mV for 200 ms and final step to holding potential. Diclofenac (300 μM in Ca^2+-free solution) was used to activate the channel.

[3] = inward current at −100 mV, read-out: EC50 of potentiation of diclofenac-induced inward TRPA1 current
[4] = outward current at +100 mV, read-out: EC50 of potentiation of diclofenac-induced outward TRPA1 current

T1 sequence (Q6RI86 whole entry): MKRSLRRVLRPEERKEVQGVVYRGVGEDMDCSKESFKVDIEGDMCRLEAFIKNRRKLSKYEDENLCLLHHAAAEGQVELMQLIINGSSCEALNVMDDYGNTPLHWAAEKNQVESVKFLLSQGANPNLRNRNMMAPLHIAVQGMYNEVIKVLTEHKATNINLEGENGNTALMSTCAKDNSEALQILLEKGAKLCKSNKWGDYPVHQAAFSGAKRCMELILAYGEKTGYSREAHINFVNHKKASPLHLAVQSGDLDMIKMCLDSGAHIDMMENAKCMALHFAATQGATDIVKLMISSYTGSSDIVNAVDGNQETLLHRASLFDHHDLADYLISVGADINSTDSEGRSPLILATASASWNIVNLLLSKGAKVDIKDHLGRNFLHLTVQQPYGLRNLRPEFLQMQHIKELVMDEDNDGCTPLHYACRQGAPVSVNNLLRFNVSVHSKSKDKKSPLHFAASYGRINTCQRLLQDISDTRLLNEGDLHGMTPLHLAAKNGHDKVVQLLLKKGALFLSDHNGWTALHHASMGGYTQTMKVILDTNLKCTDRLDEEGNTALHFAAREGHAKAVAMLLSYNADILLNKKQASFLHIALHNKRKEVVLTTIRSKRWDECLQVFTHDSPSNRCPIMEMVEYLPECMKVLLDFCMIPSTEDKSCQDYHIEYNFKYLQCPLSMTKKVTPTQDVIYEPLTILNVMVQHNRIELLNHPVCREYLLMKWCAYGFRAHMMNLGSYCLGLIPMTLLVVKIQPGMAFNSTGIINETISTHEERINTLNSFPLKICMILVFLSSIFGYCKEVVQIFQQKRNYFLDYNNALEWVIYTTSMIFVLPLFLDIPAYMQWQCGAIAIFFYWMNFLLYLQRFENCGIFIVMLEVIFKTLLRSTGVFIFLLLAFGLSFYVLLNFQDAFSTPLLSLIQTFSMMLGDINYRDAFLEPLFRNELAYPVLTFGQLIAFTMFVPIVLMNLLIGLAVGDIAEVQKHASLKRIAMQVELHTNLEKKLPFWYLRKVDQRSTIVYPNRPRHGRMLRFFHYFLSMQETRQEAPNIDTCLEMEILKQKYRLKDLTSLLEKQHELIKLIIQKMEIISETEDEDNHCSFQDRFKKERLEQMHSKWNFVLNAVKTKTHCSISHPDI

| Structure (SMILES) | EC50 (TRPA1-expressing oocytes; X. laevis oocytes, read-out: EC50 of current increase in TRPA1-expressing oocytes) [µM] | Effect on uninjected oocytes of X. laevis (TRPA1-expressing oocytes; uninjected oocytes) | Pain or thermal hyperalgesia caused in vivo [1] | Diclofenac-induced inward current potentiated up to (maximal, % of control) ([2]; inward current at −100 mV) [%] | EC50 [2, 3] [nM] | Diclofenac-induced outward current potentiated up to (maximal, % of control) ([2]; outward current at +100 mV) [%] | EC50 [2, 4] [nM] | Maximal potentiating effect lower than that of Ms 9a-1 [2] | Increase of effective concentration (EC50) for inward current compared to Ms 9a-1 ([2]; inward current, relative to Ms 9a-1) [times] |
| --- | --- | --- | --- | --- | --- | --- | --- | --- | --- |
| O=C(O)Cc1ccccc1Nc1c(Cl)cccc1Cl [Diclofenac] | 210 | no effect | – | – | – | – | – | – | – |
| CC[C@H](C)[C@@H]1NC(=O)[C@@H](NC(=O)CNC(=O)CNC(=O)[C@@H](NC(=O)[C@@H](NC(=O)[C@@H](NC(=O)[C@@H](N)CC(N)=O)[C@@H](C)CC)[C@@H](C)CC)C(C)C)CSSC[C@@H]2NC(=O)[C@H](CCCNC(=N)N)NC(=O)CNC(=O)[C@H](CO)NC(=O)[C@H](C)NC(=O)[C@H](CC(N)=O)NC(=O)[C@H](CCCCN)NC(=O)[C@H](C(C)C)NC(=O)[C@H](Cc3c[nH]cn3)NC(=O)[C@H](CSSC[C@@H](C(=O)NCC(=O)N[C@H](C(=O)N[C@@H](CC(=O)O)C(=O)N[C@@H](CCCCN)C(=O)N[C@H](C(=O)N3CCC[C@H]3C(=O)N[C@@H](CC(=O)O)C(=O)N[C@@H](CC(C)C)C(=O)N[C@@H](Cc3ccccc3)C(=O)N[C@@H](CO)C(=O)O)C(C)C)C(C)C)NC(=O)CNC(=O)[C@H](C(C)C)NC(=O)[C@H]([C@@H](C)CC)NC(=O)[C@H](CCCNC(=N)N)NC(=O)[C@H](C(C)C)NC2=O)NC(=O)[C@H](CCCCN)NC1=O [Ms 9a-1] (H-NIIVGGCIKCHVKNASGRCVRIVGCGVDKVPDLFS-OH; disulfide 7-19, 10-25) | – | – | does not cause pain or thermal hyperalgesia | 190 | 210 ± 3 | 175 | 32 ± 7 | – | – |
| CC[C@H](C)[C@@H]1NC(=O)[C@H](CCCNC(=N)N)NC(=O)[C@H](C(C)C)NC(=O)[C@@H]2CSSC[C@H](NC(=O)CNC(=O)CNC(=O)[C@@H](NC(=O)[C@@H](NC(=O)[C@@H](NC(=O)[C@@H](N)CC(N)=O)[C@@H](C)CC)[C@@H](C)CC)C(C)C)C(=O)N[C@@H](CO)C(=O)N[C@@H](CCCCN)C(=O)N[C@@H](CSSC[C@@H](C(=O)NCC(=O)N[C@H](C(=O)O)C(C)C)NC(=O)CNC(=O)[C@H](C)NC1=O)C(=O)N[C@@H](Cc1c[nH]cn1)C(=O)N[C@@H](CCCCN)C(=O)N[C@@H](CCC(N)=O)C(=O)N[C@@H](CC(=O)O)C(=O)N[C@@H](CO)C(=O)N[C@@H](CO)C(=O)NCC(=O)N[C@@H](CC(N)=O)C(=O)N2 [Ms 9a-2] (H-NIIVGGCSKCHKQDSSGNCVRIAGCGV-OH; disulfide 7-19, 10-25) | – | – | – | 139 | 412 ± 48 | 131 | 606 ± 201 | 45–50% | 3 |
| CC[C@H](C)[C@@H]1NC(=O)[C@H](CCCNC(=N)N)NC(=O)[C@H](C(C)C)NC(=O)[C@@H]2CSSC[C@H](NC(=O)CNC(=O)CNC(=O)[C@@H](NC(=O)[C@@H](NC(=O)[C@@H](NC(=O)[C@@H](N)CC(N)=O)[C@@H](C)CC)[C@@H](C)CC)C(C)C)C(=O)N[C@@H](CO)C(=O)N[C@@H](CCCCN)C(=O)N[C@@H](CSSC[C@@H](C(=O)NCC(=O)N[C@H](C(=O)O)C(C)C)NC(=O)CNC(=O)[C@H](C)NC1=O)C(=O)N[C@@H](Cc1c[nH]cn1)C(=O)N[C@@H]([C@@H](C)O)C(=O)N[C@@H](CCC(=O)O)C(=O)N[C@@H](CC(=O)O)C(=O)N[C@@H](CO)C(=O)N[C@@H](CC(N)=O)C(=O)NCC(=O)N[C@@H](CC(N)=O)C(=O)N2 [Ms 9a-3] (H-NIIVGGCSKCHTEDSNGNCVRIAGCGV-OH; disulfide 7-19, 10-25) | – | – | – | 159 | 5440 ± 2900 | 175 | 7800 ± 600 | 15–30% | – |
